Experimental data from US9518271B2, “Lentiviral-based vector and its use in directed evolution of genomic regions, genes and polynucleotides” (CENTRE NATIONAL DE LA RECHERCHE SCIENTIFIQUE, priority 2009, dated 2016).

What was measured:
[1] = tested on: Jurkat SLP-76−/−NFAT-luc cell clone; assay: Luciferase induction in Jurkat SLP-76-/- NFAT-luc cell clone; type: cell-based; conditions: NFAT binding site-driven luciferase; PMA and Calcimycine applied together
From the text: (§1) Concerning the screening based on the two luciferase-based readouts (either the one based on transcription driven by the NFAT or by IL2), the inventors have constructed two cell lines which as such are also part of the present invention: • the Jurkat SLP-76−/−plL2-luc cell clone, deposited at the CNCM (Paris, France) under accession number I-4236 on Oct. 30, 2009, in the name of Institut Pasteur, 25-28 rue du Docteur Roux, 75724 Paris Cedex 15, and resulting from the introduction in Jurkat J14 cells (SLP-76−/−) of the firefly luciferase gene under the control of two copies of the IL2 promoter; and • the Jurkat SLP-76−/−NFAT-luc cell clone, deposited at the CNCM under accession number I-4237 on Oct. 30, 2009, in the name of Institut Pasteur, 25-28 rue du Docteur Roux, 75724 Paris Cedex 15, and resulting from the introduction in Jurkat J14 cells (SLP-76−/−) of the firefly luciferase gene preceded by three copies of the NFAT binding site.

[2] = tested on: Jurkat SLP-76−/−plL2-luc cell clone; assay: Luciferase induction in Jurkat SLP-76-/- pIL2-luc cell clone; type: cell-based; conditions: IL2 promoter-driven luciferase; PMA and Calcimycine applied together
From the text: as §1

Messa 10K cells [3] = conditions: Messa 10K cells lacking functional dCK; read-out: Gemcitabine 1050; cited from earlier work
HEK 293T cells [4] = assay: Cell death (MTT assay) of HEK 293T clones carrying dCK variants exposed to AraC; type: cell-based, human; conditions: increasing concentrations of AraC, 72 h, FIG. 8
From the text: FIG. 8 discloses the cell survival with regard to increasing concentrations of AraC (μM) in presence of the wild type dCK gene (white triangles and solid thick curve) or variants containing point mutations or deletion in the dCK gene (other curves). Each plot represents the average of three independent experiments.
(§2) 80 individual cellular clones at the F17 generation, obtained after transduction of 293T cells at a low multiplicity of infection (and therefore carrying a single variant of the target polynucleotide) have been isolated. The 80 clones have been tested for the kinetic of cell death induced after their exposal to different concentrations of the two anti-cancer drugs, AraC and Gemcitabine, which are cytidine analogues (the natural substrate of dCK) as follows.
Individual clones have been isolated after transduction of HEK 293T cells at low multiplicity of transduction (m.o.i.) and seeding of the transduced cells at limiting dilutions in 96-well plates. […] Seventy-two hours after exposure, cell death has been evaluated for each independent clone and for each drug treatment condition using the MTT assay (Promega) that is a colorimetric test used to quantify cell viability and proliferation. A relative rate of cell death has been calculated for each clone, with respect to the values observed in the plate where no drug was included. […]

HEK 293T cells [5] = assay: Cell death (MTT assay) of HEK 293T clones carrying dCK variants exposed to Gemcitabine; type: cell-based, human; conditions: 10 nM Gemcitabine, average of 4 independent experiments
From the text: as §2
Individual clones have been isolated after transduction of HEK 293T cells at low multiplicity of transduction (m.o.i.) and seeding of the transduced cells at limiting dilutions in 96-well plates. Individual cell clones growing in the presence of puromycin have then been expanded and seeded in parallel in several replicated 96-well plates. All these plates, with the exception of one to use as control, have been exposed to the anticancer drug at different concentrations, while the control plate has been maintained in the absence of drug. Seventy-two hours after exposure, cell death has been evaluated for each independent clone and for each drug treatment condition using the MTT assay (Promega) that is a colorimetric test used to quantify cell viability and proliferation. A relative rate of cell death has been calculated for each clone, with respect to the values observed in the plate where no drug was included. […]

Messa 10K cells [6] = assay: Sensitivity to Gemcitabine of Messa 10K cells transduced with dCK variants; type: cell-based, human
Procedure: FIG. 10 discloses (A) the cell survival with regard to increasing concentrations of Gemcitabine (nM) in untransduced Messa 10K cells (grey solid line), in presence of the wild type dCK gene (large dashed lines) or in presence of dCK G12 variants gene (black solid lines); (B) the survival of Messa 10K cells in presence of 75 nM Gemcitabine in untransduced Messa 10K cells (Messa10K), in Messa 10K cells transduced with a viral vector carrying a wild type dCK gene (M-dCK), in Messa 10K cells transduced with a viral vector carrying the E8 variant dCK gene with mutations G>A 739 et C>A 745 (M-E8) or in Messa 10K cells transduced with a viral vector carrying the G12 variant dCK gene (M-G12), and (C) Western Blot to detect dCK expression on cell lysates, using a polyclonal rabbit antibody; M: untransduced Messa10K cells; M-dCK: Messa10K transduced with a vector carrying the wt dCK gene (4 independent populations); M-G12: Messa10K transduced with a vector carrying the G12 mutant (4 independent populations).
FIG. 11 discloses the cell survival with regard to increasing concentrations of Gemcitabine (nM) in untransduced Messa10K cells (small dashed line), in Messa10K cells transduced with a vector carrying the wt dCK gene (large dashed line; n=5), in Messa10K cells transduced with a vector carrying the sequence of the dCK G12 variant re-inserted in a wild-type backbone (light grey line; n=5), in Messa10K cells transduced with a vector rescued from the 293T-G12-F16 cell line (dark grey line; n=5) and in Messa10K cells transduced with a vector rescued from the 293T-G12-F17 cell line (solid black line; n=5). […]
For these reasons, a strategy for the screening on Messa 10K cells (illustrated in FIG. 9) was set up, aiming at averaging the epigenetic effects possibly influencing the final phenotype by analysing a population of target cells containing the same dCK variant inserted in different sites of the genome. […] The totality of the clones of the same variant were cultivated and analysed for the sensitivity to Gemcitabine in the assay previously described. […]

With CNc1ccc2oc(C[C@H]3O[C@@]4(CC[C@H]3C)O[C@H]([C@H](C)C(=O)c3ccc[nH]3)[C@H](C)C[C@H]4C)nc2c1C(=O)O [Calcimycine] the induction of luciferase [1] was “strong induction” and the induction of luciferase [2] was “strong induction”.

For Nc1ccn([C@@H]2O[C@H](CO)[C@@H](O)C2(F)F)c(=O)n1 [Gemcitabine], the IC50 (Messa 10K cells [3]) is listed as 11 µM.

In the case of CCCCCCCCCCCCCC(=O)O[C@@H]1[C@@H](C)[C@@]2(O)[C@@H](C=C(CO)C[C@]3(O)C(=O)C(C)=C[C@@H]23)[C@@H]2C(C)(C)[C@]12OC(C)=O [Phorbol Myristate Acetate], the induction of luciferase [1] is reported as “strong induction” and the induction of luciferase [2] is reported as “strong induction”.

With “G7: dCK variant with a G to A transition at position 521, leading to the G174E variation at the amino acid level [Clone G7]” the “cell death induced by AraC compared with wt dCK” value (HEK 293T cells [4]) was “clear tendency to induce cell death”.

In the case of “G12: dCK variant with a G to A transition at position 511 (E171K at the amino acid level) [Clone G12]”, the “ratio of cell survival in G12 cells/dCK cells” value (HEK 293T cells [5]) is reported as 0.50±0.11, the cell death ratio (Messa 10K cells [6]; 75 nM Gemcitabine, transduced Messa 10K cells, FIG. 10B) is reported as 90% and the “sensitivity to Gemcitabine conferred after re-insertion in a wild type lentiviral vector” value (Messa 10K cells [6]; G12 subcloned from cell line F16, Messa 10K cells, FIG. 11) is reported as “maintains the ability to confer increased sensitivity to Gemcitabine”. The “cell death by Gemcitabine compared with wild type dCK” value (Messa 10K cells [6]; transduced Messa 10K cells, four rounds of screening, FIG. 10A/10B) was “cell death ratio higher than the one induced from a wild type dCK”.
